Measured values: US20230048576A1, “COMPOUNDS FOR THE TREATMENT OF NEUROPATHIC PAIN” (City of Hope, priority 2019, published 2023)
Where “and” joins values, the source holds several entries; their conditions need not be identical. Equal entries are not always repeated. Entries after “also recorded” stand apart in the source; their conditions may differ. Marks after values point to notes of the source that are not given here.

What was measured:
[1] = Stability in acidic environment (simulated gastric fluid test), precipitation under polarized light microscope; assay type: physicochemical
Protocol: To test the stability in the acidic environment (simulated gastric fluid test) of 5 and 10 mg/ml of LR-90 in 20% HPβCD in pH 8.0 buffer, the two concentrations were added into the equal volume of pH 1.2 buffer, mixed completely, and then observed under a polarized light microscope.

[2] = system: Taxol-induced neuropathic pain; test: Von Frey test (mechanical allodynia) in Taxol induced model of neuropathic pain; assay type: in vivo, rat
Protocol: (§1) Neuropathic pain was induced by intraperitoneal administration of Taxol at a dose level of 6 mg/kg on study days 0-6 and 12 mg/kg on study days 7-12. Following injection of Taxol animals experienced pain as was assessed using the von Frey test. The development of neuropathic pain was confirmed by measuring mechanical allodynia (Von Frey test) on study day 13 (for inclusion) and on study day 14 (1 hour and 2 hour post dosing) and 24 hour post first dosing.
All data are presented as means±SEM. Each treatment group was compared to the Vehicle group using Two way ANOVA (for VF) followed by Tukey post-test (GraphPad). Vehicle group is compared to naïve group using T-test. A p value<0.05 is considered to represent a significant difference.
The response to tactile allodynia was evaluated using the Von Frey apparatus (Touch Test®). The rat was placed in an enclosure and positioned on a metal mesh surface, but allowed to move freely. A set of dull monofilaments provide an increasing force was applied on the animal plantar surface of the paw. The lowest force requires for animal paw withdrawal was recorded. Low force values recorded in this test indicate a painful state.

[3] = Pharmacokinetic study following a single oral administration; assay type: in vivo, Sprague-Dawley (SD) rats; conditions: in 20% HPβCD in pH 8.0 buffer; 50 mg/kg oral gavage; vs salt in water, 4% DMSO in corn oil, Ora-Blend SF
Protocol: Pharmacokinetic studies of four different formulations of LR-90 were investigated. LR-90 either in salt formulation dissolved in water, in 4% DMSO in corn oil, in 20% HPβCD in pH 8.0 buffer, and in Ora-Blend SF was delivered at a dose of 50 mg/kg by oral gavage in Sprague-Dawley (SD) rats. Blood samples were collected at 0 min, 15 min, 30 min, 1 hr, 2 hr, 4 hr, 8 hr, 24 hr and 48 hr post-dosing. LR-90 level was determined in plasma by LC-MS/MS assay.

[4] = Mean group body weight in Taxol model; assay type: in vivo, rat
Protocol: as §1

[5] = 100 mg/kg PO, Group 4, Baseline

With `CC(C)(Oc1ccc(NC(=O)Nc2ccc(Cc3ccc(NC(=O)Nc4ccc(OC(C)(C)C(=O)O)cc4)c(Cl)c3)cc2Cl)cc1)C(=O)O` [LR-90, methylene bis[4,4′-(2-chlorophenylureidophenoxyisobutyric acid)]] the “precipitation after mixing with equal volume of pH 1.2 buffer” value ([1]; 5 mg/ml LR-90 in 20% HPβCD in pH 8.0 buffer, after an hour) was “no precipitation”, the “precipitation after mixing with equal volume of pH 1.2 buffer” value ([1]; 10 mg/ml LR-90 in 20% HPβCD in pH 8.0 buffer, about 60 min) was “Very little precipitation” and the “effect on the sensitivity of the treated animals to mechanical stimulation” value ([2]; 25 mg/kg) was “No significant effect”. For the same molecule, the “mean Von Frey force required for withdrawal” value (from here on “mean Von Frey force required”) ([2]; 25 mg/kg PO, Group 6, Baseline) was 60.00 g, the “mean Von Frey force required” value ([2]; 25 mg/kg PO, Group 6, Day 13 pre dosing) was 9.81 g and the “mean Von Frey force required” value ([2]; 25 mg/kg PO, Group 6, Day 14 1 hour post dosing) was 21.88 g. For the same molecule, the “mean Von Frey force required” value ([2]; 25 mg/kg PO, Group 6, Day 14 2 hours post dosing) was 17.31 g, the “mean Von Frey force required” value ([2]; 25 mg/kg PO, Group 6, Day 15 24 hours post dosing) was 14.13 g and the “effect on the sensitivity of the treated animals to mechanical stimulation” value ([2]; 50 mg/kg) was “No significant effect”. For the same molecule, the “mean Von Frey force required” value ([2]; 50 mg/kg PO, Group 5, Baseline) was 60.00 g, the “mean Von Frey force required” value ([2]; 50 mg/kg PO, Group 5, Day 13 pre dosing) was 9.81 g and the “mean Von Frey force required” value ([2]; 50 mg/kg PO, Group 5, Day 14 1 hour post dosing) was 17.38 g. For the same molecule, the “mean Von Frey force required” value ([2]; 50 mg/kg PO, Group 5, Day 14 2 hours post dosing) was 22.13 g, the “mean Von Frey force required” value ([2]; 50 mg/kg PO, Group 5, Day 15 24 hours post dosing) was 16.75 g and the “mean Von Frey force required” value [2, 5] was 57.88 g. The “mean Von Frey force required” value ([2]; 100 mg/kg PO, Group 4, Day 13 pre dosing) was 10.06 g, the “mean Von Frey force required” value ([2]; 100 mg/kg PO, Group 4, Day 14 1 hour post dosing) was 34.69**** g and the “mean Von Frey force required” value ([2]; 100 mg/kg PO, Group 4, Day 14 2 hours post dosing) was 32.56±7.56 g and 32.56*** g. The “mean Von Frey force required” value ([2]; 100 mg/kg PO, Group 4, Day 15 24 hours post dosing) was 26.25 g, the “effect on neuropathic pain compared to the vehicle group (Von Frey test)” value ([2]; 100 mg/kg, Group 4, 1 hour and 2 hour post dosing on study day 14) was “statistically significantly reduced the neuropathic pain; also recorded: significantly effective in reducing neuropathic pain” and the “pharmacokinetics (plasma LR-90 level) compared with the three other formulations” value [3] was “superior”. For the same molecule, the “Mean group body weight” value ([4]; 25 mg/kg PO, Group 6, Baseline) was 223.50 g, the “Mean group body weight (% from baseline)” value ([4]; 25 mg/kg PO, Group 6, Baseline) was 100.00% and the “Mean group body weight” value ([4]; 25 mg/kg PO, Group 6, Day 1) was 235.00 g. The “Mean group body weight (% from baseline)” value ([4]; 25 mg/kg PO, Group 6, Day 1) was 105.16%, the “Mean group body weight” value ([4]; 25 mg/kg PO, Group 6, Day 3) was 237.50 g and the “Mean group body weight (% from baseline)” value ([4]; 25 mg/kg PO, Group 6, Day 3) was 106.26%. The “Mean group body weight” value ([4]; 25 mg/kg PO, Group 6, Day 5) was 255.50 g, the “Mean group body weight (% from baseline)” value ([4]; 25 mg/kg PO, Group 6, Day 5) was 114.32% and the “Mean group body weight” value ([4]; 25 mg/kg PO, Group 6, Day 7) was 264.30 g. For the same molecule, the “Mean group body weight (% from baseline)” value ([4]; 25 mg/kg PO, Group 6, Day 7) was 118.31%, the “Mean group body weight” value ([4]; 25 mg/kg PO, Group 6, Day 9) was 275.88 g and the “Mean group body weight (% from baseline)” value ([4]; 25 mg/kg PO, Group 6, Day 9) was 123.38%. For the same molecule, the “Mean group body weight” value ([4]; 25 mg/kg PO, Group 6, Day 11) was 282.38 g, the “Mean group body weight (% from baseline)” value ([4]; 25 mg/kg PO, Group 6, Day 11) was 126.30% and the “Mean group body weight” value ([4]; 25 mg/kg PO, Group 6, Day 13) was 286.75 g. For the same molecule, the “Mean group body weight (% from baseline)” value ([4]; 25 mg/kg PO, Group 6, Day 13) was 128.26%, the “Mean group body weight” value ([4]; 25 mg/kg PO, Group 6, Day 16) was 277.50 g and the “Mean group body weight (% from baseline)” value ([4]; 25 mg/kg PO, Group 6, Day 16) was 124.11%. The “Mean group body weight” value ([4]; 25 mg/kg PO, Group 6, Day 20) was 277.63 g, the “Mean group body weight (% from baseline)” value ([4]; 25 mg/kg PO, Group 6, Day 20) was 124.18% and the “Mean group body weight” value ([4]; 25 mg/kg PO, Group 6, Day 23) was 263.63 g. For the same molecule, the “Mean group body weight (% from baseline)” value ([4]; 25 mg/kg PO, Group 6, Day 23) was 117.84%, the “Mean group body weight” value ([4]; 25 mg/kg PO, Group 6, Day 26) was 239.00 g and the “Mean group body weight (% from baseline)” value ([4]; 25 mg/kg PO, Group 6, Day 26) was 108.59%. The “Mean group body weight” value ([4]; 50 mg/kg PO, Group 5, Baseline) was 225.88 g, the “Mean group body weight (% from baseline)” value ([4]; 50 mg/kg PO, Group 5, Baseline) was 100.00% and the “Mean group body weight” value ([4]; 50 mg/kg PO, Group 5, Day 1) was 234.38 g. For the same molecule, the “Mean group body weight (% from baseline)” value ([4]; 50 mg/kg PO, Group 5, Day 1) was 103.80%, the “Mean group body weight” value ([4]; 50 mg/kg PO, Group 5, Day 3) was 241.63 g and the “Mean group body weight (% from baseline)” value ([4]; 50 mg/kg PO, Group 5, Day 3) was 106.95%. For the same molecule, the “Mean group body weight” value ([4]; 50 mg/kg PO, Group 5, Day 5) was 257.50 g, the “Mean group body weight (% from baseline)” value ([4]; 50 mg/kg PO, Group 5, Day 5) was 113.97% and the “Mean group body weight” value ([4]; 50 mg/kg PO, Group 5, Day 7) was 268.63 g. For the same molecule, the “Mean group body weight (% from baseline)” value ([4]; 50 mg/kg PO, Group 5, Day 7) was 118.88%, the “Mean group body weight” value ([4]; 50 mg/kg PO, Group 5, Day 9) was 278.38 g and the “Mean group body weight (% from baseline)” value ([4]; 50 mg/kg PO, Group 5, Day 9) was 123.18%. The “Mean group body weight” value ([4]; 50 mg/kg PO, Group 5, Day 11) was 286.13 g, the “Mean group body weight (% from baseline)” value ([4]; 50 mg/kg PO, Group 5, Day 11) was 126.60% and the “Mean group body weight” value ([4]; 50 mg/kg PO, Group 5, Day 13) was 291.38 g. For the same molecule, the “Mean group body weight (% from baseline)” value ([4]; 50 mg/kg PO, Group 5, Day 13) was 128.91%, the “Mean group body weight” value ([4]; 50 mg/kg PO, Group 5, Day 16) was 280.13 g and the “Mean group body weight (% from baseline)” value ([4]; 50 mg/kg PO, Group 5, Day 16) was 123.98%. For the same molecule, the “Mean group body weight” value ([4]; 50 mg/kg PO, Group 5, Day 20) was 273.75 g, the “Mean group body weight (% from baseline)” value ([4]; 50 mg/kg PO, Group 5, Day 20) was 121.18% and the “Mean group body weight” value ([4]; 50 mg/kg PO, Group 5, Day 23) was 264.29 g. The “Mean group body weight (% from baseline)” value ([4]; 50 mg/kg PO, Group 5, Day 23) was 116.09%, the “Mean group body weight” value ([4]; 50 mg/kg PO, Group 5, Day 26) was 266.67 g and the “Mean group body weight (% from baseline)” value ([4]; 50 mg/kg PO, Group 5, Day 26) was 117.29%. The “Mean group body weight” value [4, 5] was 222.63 g, the “Mean group body weight (% from baseline)” value [4, 5] was 100.00% and the “Mean group body weight” value ([4]; 100 mg/kg PO, Group 4, Day 1) was 235.50 g. The “Mean group body weight (% from baseline)” value ([4]; 100 mg/kg PO, Group 4, Day 1) was 105.77%, the “Mean group body weight” value ([4]; 100 mg/kg PO, Group 4, Day 3) was 237.63 g and the “Mean group body weight (% from baseline)” value ([4]; 100 mg/kg PO, Group 4, Day 3) was 106.74%. For the same molecule, the “Mean group body weight” value ([4]; 100 mg/kg PO, Group 4, Day 5) was 257.25 g, the “Mean group body weight (% from baseline)” value ([4]; 100 mg/kg PO, Group 4, Day 5) was 115.56% and the “Mean group body weight” value ([4]; 100 mg/kg PO, Group 4, Day 7) was 267.25 g. For the same molecule, the “Mean group body weight (% from baseline)” value ([4]; 100 mg/kg PO, Group 4, Day 7) was 120.04%, the “Mean group body weight” value ([4]; 100 mg/kg PO, Group 4, Day 9) was 276.50 g and the “Mean group body weight (% from baseline)” value ([4]; 100 mg/kg PO, Group 4, Day 9) was 124.20%. For the same molecule, the “Mean group body weight” value ([4]; 100 mg/kg PO, Group 4, Day 11) was 285.00 g, the “Mean group body weight (% from baseline)” value ([4]; 100 mg/kg PO, Group 4, Day 11) was 128.01% and the “Mean group body weight” value ([4]; 100 mg/kg PO, Group 4, Day 13) was 288.75 g. For the same molecule, the “Mean group body weight (% from baseline)” value ([4]; 100 mg/kg PO, Group 4, Day 13) was 129.71%, the “Mean group body weight” value ([4]; 100 mg/kg PO, Group 4, Day 16) was 284.75 g and the “Mean group body weight (% from baseline)” value ([4]; 100 mg/kg PO, Group 4, Day 16) was 127.91%. For the same molecule, the “Mean group body weight” value ([4]; 100 mg/kg PO, Group 4, Day 20) was 266.63 g, the “Mean group body weight (% from baseline)” value ([4]; 100 mg/kg PO, Group 4, Day 20) was 119.75% and the “Mean group body weight” value ([4]; 100 mg/kg PO, Group 4, Day 23) was 249.00 g. For the same molecule, the “Mean group body weight (% from baseline)” value ([4]; 100 mg/kg PO, Group 4, Day 23) was 111.34%, the “Mean group body weight” value ([4]; 100 mg/kg PO, Group 4, Day 26) was 234.00 g and the “Mean group body weight (% from baseline)” value ([4]; 100 mg/kg PO, Group 4, Day 26) was 106.04%.
